Legend:
[1] = Shake-flask solubility with spectrophotometric measurement in neat deep eutectic solvents; type: physicochemical
Protocol: (§1) In order to determine the solubility of the three studied phenolic acids in deep eutectic solvents, a very well-established shake-flask method coupled with spectrophotometric measurements was utilized. The initial procedure involved the preparation of various DESs, which was conducted by mixing their HBA and HBD counterparts in a glass vessel and heating the composition until the formation of a transparent, uniform liquid. […] For additional measurements, the DESs were mixed with water in varying proportions, creating aqueous DES systems. Saturated solutions of CAF, SYR, and COU were obtained by adding excess amounts of these compounds to test tubes containing either a neat deep eutectic solvent or its aqueous solution. Such samples were placed in the Orbital Shaker Incubator ES-20/60 from Biosan (Riga, Latvia) and heated for 24 h at 25 °C, 30 °C, 35 °C, and 40 °C (±0.1 °C) with simultaneous mixing at 60 rpm. Before measurements, the samples were filtered using a PTFE syringe filter from Qpore (Dallas, TX, USA) with a 0.22 μm pore size. In order to avoid possible precipitation of the saturated solutions at decreased temperatures, the test tubes, syringes, pipette tips, and filters were kept at a temperature identical to that of the samples. The spectrophotometric measurements required the preparation of calibration curves for the three APIs. This involved the preparation of a stock solution of each compound in methanol, which was later successfully diluted, and the obtained solutions of varying concentrations were measured using an A360 spectrophotometer from AOE Instruments (Shanghai, China). The wavelength range was set to 200-500 nm, and the resolution was 1 nm. The analytical wavelengths were determined to be 324 nm for caffeic acid, 273 nm for syringic acid, and 308 nm for p-coumaric acid. The final regression equations, obtained after averaging three distinct sets of measurements, are collected in Table 2 together with determination coefficients and limits of detection (LOD) and quantification (LOQ) for the calibration curves. The measurements of the samples were conducted with the same spectrophotometer and identical settings. Methanol was used for the dilution of the samples so that they could remain within the linearity range of the method. Complete spectra of the samples were recorded, but for the solubility determination, the absorbance values at a specific analytical wavelength were considered. These values were combined with the corresponding regression equations of the calibration curves and served for the calculation of the concentration of the three phenolic acids in the studied samples. The densities of such samples were also measured, and for this task 1 mL of each sample was weighed to a precision of 0.1 mg using an AS 110 R2.PLUS analytical balance from […] (Radom, Poland). The obtained densities enabled the calculation of mole fractions of CAF, SYR, and COU dissolved in the studied DESs. For each considered system, three distinct measurements were conducted, and the results were averaged.

[2] = Shake-flask solubility with spectrophotometric measurement in aqueous DES mixtures; type: physicochemical; conditions: Bet – TEG 1:2 + water
Protocol: as §1

COc1cc(C(=O)O)cc(OC)c1O [syringic acid, 4-hydroxy-3,5-dimethoxybenzoic acid]
Mole fraction solubility ([1]; neat DES Bet - DEG, HBA:HBD molar ratio 1:1, 25 °C): 0.0235±0.0003 mole fraction | Mole fraction solubility ([1]; neat DES Bet - DEG, HBA:HBD molar ratio 1:2, 25 °C): 0.0311±0.0002 mole fraction | Mole fraction solubility ([1]; neat DES Bet - DEG, HBA:HBD molar ratio 1:4, 25 °C): 0.0283±0.0003 mole fraction | Mole fraction solubility ([1]; neat DES Bet - ETG, HBA:HBD molar ratio 1:1, 25 °C): 0.0132±0.0001 mole fraction | Mole fraction solubility ([1]; neat DES Bet - ETG, HBA:HBD molar ratio 1:2, 25 °C): 0.0274±0.0002 mole fraction | Mole fraction solubility ([1]; neat DES Bet - ETG, HBA:HBD molar ratio 1:4, 25 °C): 0.0205±0.0002 mole fraction | Mole fraction solubility ([1]; neat DES Bet - GLY, HBA:HBD molar ratio 1:1, 25 °C): 0.0203±0.0002 mole fraction | Mole fraction solubility ([1]; neat DES Bet - GLY, HBA:HBD molar ratio 1:2, 25 °C): 0.0358±0.0003 mole fraction | Mole fraction solubility ([1]; neat DES Bet - GLY, HBA:HBD molar ratio 1:4, 25 °C): 0.0300±0.0002 mole fraction | Mole fraction solubility ([1]; neat DES Bet - TEG, HBA:HBD molar ratio 1:1, 25 °C): 0.0317±0.0003 mole fraction | Mole fraction solubility ([1]; neat DES Bet - TEG, HBA:HBD molar ratio 1:2, 25 °C): 0.0474 mole fraction | Mole fraction solubility ([1]; neat DES Bet - TEG, HBA:HBD molar ratio 1:2, 25 °C, listed as syryngic acid): 0.0474±0.0003 mole fraction | Mole fraction solubility ([1]; neat DES Bet - TEG, HBA:HBD molar ratio 1:4, 25 °C): 0.0388±0.0003 mole fraction | Mole fraction solubility ([1]; neat DES ChCl - DEG, HBA:HBD molar ratio 1:1, 25 °C): 0.0230±0.0004 mole fraction | Mole fraction solubility ([1]; neat DES ChCl - DEG, HBA:HBD molar ratio 1:2, 25 °C): 0.0465±0.0004 mole fraction | Mole fraction solubility ([1]; neat DES ChCl - ETG, HBA:HBD molar ratio 1:1, 25 °C): 0.0186±0.0002 mole fraction | Mole fraction solubility ([1]; neat DES ChCl - ETG, HBA:HBD molar ratio 1:2, 25 °C): 0.0304±0.0002 mole fraction | Mole fraction solubility ([1]; neat DES ChCl - ETG, HBA:HBD molar ratio 1:4, 25 °C): 0.0244±0.0002 mole fraction | Mole fraction solubility ([1]; neat DES ChCl - TEG, HBA:HBD molar ratio 1:2, 25 °C): 0.0515 mole fraction | Mole fraction solubility ([2]; x*DES 0.1, 25°C): 0.0042±0.0001 mole fraction | Mole fraction solubility ([2]; x*DES 0.1, 30°C): 0.0046±0.0001 mole fraction | Mole fraction solubility ([2]; x*DES 0.1, 35°C): 0.0057±0.0001 mole fraction | Mole fraction solubility ([2]; x*DES 0.1, 40°C): 0.0067±0.0001 mole fraction | Mole fraction solubility ([2]; x*DES 0.2, 25°C): 0.0093±0.0001 mole fraction | Mole fraction solubility ([2]; x*DES 0.2, 30°C): 0.0105±0.0001 mole fraction | Mole fraction solubility ([2]; x*DES 0.2, 35°C): 0.0127±0.0001 mole fraction | Mole fraction solubility ([2]; x*DES 0.2, 40°C): 0.0148±0.0002 mole fraction | Mole fraction solubility ([2]; x*DES 0.3, 25°C): 0.0153±0.0001 mole fraction | Mole fraction solubility ([2]; x*DES 0.3, 30°C): 0.0173±0.0001 mole fraction | Mole fraction solubility ([2]; x*DES 0.3, 35°C): 0.0207±0.0002 mole fraction | Mole fraction solubility ([2]; x*DES 0.3, 40°C): 0.0239±0.0002 mole fraction | Mole fraction solubility ([2]; x*DES 0.4, 25°C): 0.0214±0.0002 mole fraction | Mole fraction solubility ([2]; x*DES 0.4, 30°C): 0.0247±0.0001 mole fraction | Mole fraction solubility ([2]; x*DES 0.4, 35°C): 0.0290±0.0002 mole fraction | Mole fraction solubility ([2]; x*DES 0.4, 40°C): 0.0341±0.0003 mole fraction | Mole fraction solubility ([2]; x*DES 0.5, 25°C): 0.0284±0.0002 mole fraction | Mole fraction solubility ([2]; x*DES 0.5, 30°C): 0.0318±0.0002 mole fraction | Mole fraction solubility ([2]; x*DES 0.5, 35°C): 0.0386±0.0002 mole fraction | Mole fraction solubility ([2]; x*DES 0.5, 40°C): 0.0457±0.0003 mole fraction | Mole fraction solubility ([2]; x*DES 0.6, 25°C): 0.0351±0.0003 mole fraction | Mole fraction solubility ([2]; x*DES 0.6, 30°C): 0.0396±0.0003 mole fraction | Mole fraction solubility ([2]; x*DES 0.6, 35°C): 0.0475±0.0009 mole fraction | Mole fraction solubility ([2]; x*DES 0.6, 40°C): 0.0568±0.0006 mole fraction | Mole fraction solubility ([2]; x*DES 0.7, 25°C): 0.0425±0.0003 mole fraction | Mole fraction solubility ([2]; x*DES 0.7, 30°C): 0.0483±0.0005 mole fraction | Mole fraction solubility ([2]; x*DES 0.7, 35°C): 0.0579±0.0010 mole fraction | Mole fraction solubility ([2]; x*DES 0.7, 40°C): 0.0702±0.0004 mole fraction | Mole fraction solubility ([2]; x*DES 0.8, 30°C): 0.0558±0.0006 mole fraction | Mole fraction solubility ([2]; x*DES 0.8, 35°C): 0.0673±0.0015 mole fraction | Mole fraction solubility ([2]; x*DES 0.8, 40°C): 0.0790±0.0009 mole fraction | Mole fraction solubility ([2]; x*DES 0.9, 25°C): 0.0488 mole fraction | Mole fraction solubility ([2]; x*DES 0.9, 25°C, listed as syryngic acid): 0.0488±0.0004 mole fraction

— PMC12564265, “Navigating the Deep Eutectic Solvent Landscape: Experimental and Machine Learning Solubility Explorations of Syringic, p-Coumaric, and Caffeic Acids” (International Journal of Molecular Sciences, 2025)
